{"source": "paper PMC5454592", "about": "“Pharmacological and Toxicological Properties of the Potent Oral γ-Secretase Modulator BPN-15606” (The Journal of Pharmacology and Experimental Therapeutics, 2017)", "key": {"PK in mouse (i.v./po)": {"assay": "PK in mouse (i.v./po)", "format": "in vivo", "settings": "male, plasma, CD-1 mice, 5 mg/kg po vs 1 mg/kg i.v.", "protocol": "Male CD-1 mice and male Sprague–Dawley rats were administered a single dose of BPN-15606 by i.v. or oral gavage (po) dose routes to assess oral bioavailability. Mice and rats received BPN-15606 as a single i.v. dose at 1 mg/kg (n = 5) or a single po dose at 5 mg/kg (n = 5). Blood was collected from mice and rats at 5 (i.v. only), 15, and 30 minutes, and 1, 2, 4, 8, and 12 hours postdose for processing to plasma. For mice, brains were collected from both dose groups (i.v. and po) at 1, 4, 8, and 12 hours postdose. For rats, brains were collected from those same animals at the 12-hour time point only. […]\nData were subjected to noncompartmental analysis using WinNonlin Phoenix Model 200 (for extravascular administration) or Model 201 (for i.v. bolus administration) and the sparse sampling feature; a uniform weighting factor was applied to each data set. Time to maximum plasma concentration (Tmax) and maximum plasma concentration (Cmax) values were determined directly from the data. Area under the plasma concentration–time curve to the last time point (AUClast) values were calculated using the log/linear trapezoidal (i.v. dose) or linear up/log down trapezoidal (po dose). Values were calculated using the plasma data from composite groups. […] The volume of distribution at steady state and clearance were calculated using the i.v. group data. […]"}, "[1]": {"assay": "Toxicokinetics in NHP (300 mg/kg repeat dose)", "format": "in vivo, cynomolgus macaques", "settings": "cynomolgus monkey", "protocol": "The objectives of this study were to determine the MTD of BPN-15606, characterize potential toxicity, and calculate toxicokinetic parameters of BPN-15606 in adult male and female cynomolgus macaques following daily po dose administration at a near-MTD dose of BPN-15606 for 7 consecutive days. In the dose escalation phase to establish the MTD (phase A), male and female cynomolgus macaques (n = 2/sex) were administered single doses of BPN-15606 at 3, 10, 30, 100, and 300 mg/kg, with 2 to 4 days between each dose escalation (Fig. 10). […] The plasma drug concentrations at the approximate Tmax increased in a dose-dependent manner. […] Comprehensive evaluation of clinical pathology parameters (clinical chemistry, hematology), gross pathology, and histopathologic parameters was carried out at SRI International, according to their standardized protocols. Tissues examined histopathologically included the following: liver, lung, stomach, duodenum, colon, spleen, pancreas, thymus, heart, brain, and kidney."}, "HReN-mGAP AD ReN cells": {"tested_on": "HReN-mGAP AD ReN cells", "assay": "CytoTox-ONE (lactate dehydrogenase) assay in 3D culture", "format": "cell-based", "settings": "70 nM; 1-week-old treated media", "protocol": "HReN-mGAP AD ReN cell expression APP^Swedish/London and Presenilin 1^ΔE9 were previously described ([Choi et al., 2014]). The HReN-mGAP AD ReN cells were three-dimensional (3D)–differentiated for 7 weeks, as previously described ([Choi et al., 2014]). The cultures were then harvested and analyzed for the soluble (conditioned media) and insoluble Aβ40/42/38 and p-tau/tau levels, using Meso Scale Discovery electrochemiluminescence system. BPN-15606 (70 nM) and the same volume of DMSO controls were treated in the last 4 weeks. The potential toxicity of the drugs was monitored by CytoTox-ONE (lactate dehydrogenase) assay after 1 week of the treatments. At the end of the treatments, the soluble (media) and the insoluble fractions (5 M GuHCl-soluble extracts) were collected and analyzed for Aβ38, Aβ40, and Aβ42 with MSD enzyme-linked immunosorbent assay (ELISA; V-Plex 6E10 Aβ40/Aβ42/Aβ38 kit). The custom-made plates were used for detecting total tau (BT2; ThermoFisher Scientific, Sommerset, NJ) and pThr181 tau (At270; ThermoFisher Scientific, Sommerset, NJ). The insoluble fraction was dissolved in 5 M GuHCl, and pThr181 tau, total tau, Aβ40, Aβ42, and Aβ38 concentrations were determined by MSD ELISA. The levels of the control protein Tuj1 were determined by dot-blot analysis in the GuHCl lysates (data not shown)."}, "[2]": {"assay": "PK in nonhuman primates (i.v./po)", "format": "in vivo", "settings": "male, cynomolgus monkey, plasma; cynomolgus monkeys; 2 mg/kg po vs 1 mg/kg i.v.", "protocol": "Male non-naive cynomolgus monkeys (NHP) were administered BPN-15606 as a single nasogastric (po; 2 mg/kg) or i.v. (1 mg/kg) dose to assess oral bioavailability. Whole-blood samples were collected at specific time points and processed to plasma. Study in-life was conducted at Charles River Laboratories (Reno, NV). Pharmacokinetic (PK) plasma samples were shipped to SRI International for determination of drug concentrations. Samples were analyzed at SRI International using the bioanalytical method described above and validated for NHP plasma, and the LLOQ was 1 ng/ml. Data were subjected to noncompartmental analysis using WinNonlin Phoenix Model 200 (for extravascular administration) or Model 201 (for i.v. bolus administration) and the sparse sampling feature; a uniform weighting factor was applied to each data set. Time to maximum plasma concentration (Tmax) and maximum plasma concentration (Cmax) values were determined directly from the data. Area under the plasma concentration–time curve to the last time point (AUClast) values were calculated using the log/linear trapezoidal (i.v. dose) or linear up/log down trapezoidal (po dose). Values were calculated using the plasma data from composite groups. The dose administered was input to the program as mg/kg, and as a result no additional corrections for individual body weights of the animals were necessary. […]"}, "[3]": {"assay": "Metabolite identification in cryopreserved hepatocytes", "format": "in vitro ADME, mouse, rat, dog, monkey, human", "settings": "hepatocyte cultures from five species", "protocol": "Test compound (1 μM) was incubated at 37°C for 4 hours with cryopreserved mouse, rat, dog, monkey, or human hepatocytes. Identification of metabolites’ molecular weights and relative abundance of the specific metabolites was based on high performance liquid chromatography (HPLC)/MS/MS peak areas, and structural characterization of metabolites was accomplished by LC/MS/MS/Q-Trap."}}}
{"smiles": "COc1nc(-c2cc(C)c(N[C@@H](C)c3ccc(F)cc3)nn2)ccc1-n1cnc(C)c1", "note": "[BPN-15606, (S)-N-(1-(4-fluorophenyl)ethyl)-6-(6-methoxy-5-(4-methyl-1H-imidazol-1-yl)pyridin-2-yl)-4-methylpyridazin-3-amine]", "values": [{"measurement": "bioavailability", "setting": "PK in mouse (i.v./po)", "value": "> 60", "unit": "%"}, {"measurement": "half-life", "setting": "[1]; both sexes, plasma, po, 300 mg/kg, cynomolgus macaques, 300 mg/kg po, day 1", "value": 522, "unit": "min"}, {"measurement": "half-life", "setting": "[1]; both sexes, plasma, po, 300 mg/kg, cynomolgus macaques, 300 mg/kg po, day 6", "value": 612, "unit": "min"}, {"measurement": "Tmax", "setting": "[1]; both sexes, plasma, cynomolgus macaques, 300 mg/kg po", "value": "2 to 4", "unit": "h"}, {"measurement": "exposure (AUClast) day 6 relative to day 1", "setting": "[1]; both, in vivo, po, 300 mg/kg", "value": "about 1.7 fold"}, {"measurement": "toxicity (Cytotox cell death lactate dehydrogenase assay)", "setting": "HReN-mGAP AD ReN cells", "value": "did not induce any significant toxicity"}, {"measurement": "bioavailability", "setting": "[2]", "value": 30.8, "unit": "%"}, {"measurement": "uniquely human metabolites", "setting": "[3]", "value": "absence of any unique human metabolites"}, {"measurement": "uniquely human metabolites", "setting": "[3]; listed as BPN-15605", "value": "no uniquely human metabolites identified"}]}
